In article PMC11022538, “Antibacterial insights into alternariol and its derivative alternariol monomethyl ether produced by a marine fungus” (Applied and Environmental Microbiology, 2024):

Legend:
Assay in all cases: plasmid pCT74 unwinding, agarose gel
Assay type in all cases: biochemical
Details in all cases: AOH 4 µg/mL (Fig 6; 1 µg in a 20 µL reaction), 5 min pre-incubation, 37°C, Mg2+; qualitative inhibition; no ATP listed
Top1 = target: T1, Top1 (Staphylococcus aureus, UniProt P20831)
T1 construct: gene gyrA; full gene in pET28a, His-tagged, E. coli BL21(DE3), Ni column; tag kept

Top4 = target: T2, Top4 (Staphylococcus aureus, UniProt Q99S17)
T2 construct: gene topB; full gene in pET28a, His-tagged, E. coli BL21(DE3), Ni column; tag kept

Topc = target: T3, Topc (Staphylococcus aureus, UniProt P0A0K8+P20831)
T3 construct: gene gyrA; Top1 and Top2 combined; each in pET28a, His-tagged, E. coli BL21(DE3)

Top3 = target: T4, Top3 (Staphylococcus aureus, UniProt Q5HGI2)
T4 construct: gene topA; full gene in pET28a, His-tagged, E. coli BL21(DE3), Ni column; tag kept
T4 sequence (Q5HGI2 whole entry): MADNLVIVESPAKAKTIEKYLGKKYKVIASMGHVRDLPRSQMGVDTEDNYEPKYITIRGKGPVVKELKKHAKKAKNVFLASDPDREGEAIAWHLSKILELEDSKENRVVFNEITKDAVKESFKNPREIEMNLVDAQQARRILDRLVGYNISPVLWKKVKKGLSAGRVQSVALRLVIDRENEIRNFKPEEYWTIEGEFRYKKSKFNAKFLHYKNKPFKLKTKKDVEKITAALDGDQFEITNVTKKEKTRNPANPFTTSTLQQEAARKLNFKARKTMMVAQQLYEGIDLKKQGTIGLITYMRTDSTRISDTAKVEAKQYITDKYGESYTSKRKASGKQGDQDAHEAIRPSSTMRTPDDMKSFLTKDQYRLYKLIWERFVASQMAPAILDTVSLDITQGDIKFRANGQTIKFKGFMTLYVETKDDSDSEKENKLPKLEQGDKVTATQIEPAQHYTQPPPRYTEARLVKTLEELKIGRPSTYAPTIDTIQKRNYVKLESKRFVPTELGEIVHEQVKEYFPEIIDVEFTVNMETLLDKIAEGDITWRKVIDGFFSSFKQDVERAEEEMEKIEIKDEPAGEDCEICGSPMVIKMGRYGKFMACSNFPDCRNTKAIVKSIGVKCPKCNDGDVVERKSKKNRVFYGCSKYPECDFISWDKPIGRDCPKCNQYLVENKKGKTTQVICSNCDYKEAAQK

T1 sequence (P20831 whole entry): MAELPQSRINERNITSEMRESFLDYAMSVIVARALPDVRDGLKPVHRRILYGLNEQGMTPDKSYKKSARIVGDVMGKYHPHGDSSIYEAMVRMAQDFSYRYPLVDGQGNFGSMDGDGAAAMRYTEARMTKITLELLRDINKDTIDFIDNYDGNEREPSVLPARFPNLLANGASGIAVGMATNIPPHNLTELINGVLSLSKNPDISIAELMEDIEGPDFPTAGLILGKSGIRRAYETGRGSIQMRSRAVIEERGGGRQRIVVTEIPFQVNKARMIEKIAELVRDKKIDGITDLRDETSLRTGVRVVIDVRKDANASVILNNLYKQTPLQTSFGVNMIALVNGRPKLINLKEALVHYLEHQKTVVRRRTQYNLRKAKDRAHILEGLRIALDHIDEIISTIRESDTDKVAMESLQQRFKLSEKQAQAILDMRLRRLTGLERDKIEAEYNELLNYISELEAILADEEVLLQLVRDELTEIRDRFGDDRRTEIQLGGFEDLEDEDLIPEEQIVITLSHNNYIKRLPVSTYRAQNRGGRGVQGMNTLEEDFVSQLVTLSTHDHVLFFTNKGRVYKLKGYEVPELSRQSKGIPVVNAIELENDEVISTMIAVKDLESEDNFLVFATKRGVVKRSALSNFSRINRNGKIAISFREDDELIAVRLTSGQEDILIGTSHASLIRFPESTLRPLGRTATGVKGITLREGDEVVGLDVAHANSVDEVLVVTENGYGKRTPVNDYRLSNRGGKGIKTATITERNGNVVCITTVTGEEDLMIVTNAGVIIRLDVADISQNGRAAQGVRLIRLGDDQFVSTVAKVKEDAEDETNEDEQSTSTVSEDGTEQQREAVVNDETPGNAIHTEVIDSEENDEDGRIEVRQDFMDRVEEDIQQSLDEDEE
T3 sequence (P20831 whole entry): as above
T3 sequence (P0A0K8 2-644): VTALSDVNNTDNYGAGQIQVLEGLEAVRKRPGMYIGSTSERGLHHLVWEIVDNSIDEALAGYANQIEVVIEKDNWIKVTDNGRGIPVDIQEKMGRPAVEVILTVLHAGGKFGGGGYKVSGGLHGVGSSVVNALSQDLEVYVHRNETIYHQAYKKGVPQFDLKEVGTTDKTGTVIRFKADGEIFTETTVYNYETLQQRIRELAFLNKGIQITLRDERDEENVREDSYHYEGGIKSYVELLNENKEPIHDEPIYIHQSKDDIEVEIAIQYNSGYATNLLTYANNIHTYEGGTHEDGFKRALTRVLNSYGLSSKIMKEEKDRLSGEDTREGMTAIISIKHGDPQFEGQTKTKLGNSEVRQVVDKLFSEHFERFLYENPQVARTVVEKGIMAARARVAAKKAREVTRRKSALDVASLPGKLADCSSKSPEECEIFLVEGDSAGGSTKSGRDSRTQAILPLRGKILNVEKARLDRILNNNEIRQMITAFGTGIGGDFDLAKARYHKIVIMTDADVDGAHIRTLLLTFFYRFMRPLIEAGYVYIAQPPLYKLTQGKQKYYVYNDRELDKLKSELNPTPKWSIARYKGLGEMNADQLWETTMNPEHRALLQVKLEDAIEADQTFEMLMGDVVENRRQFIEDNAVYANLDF
T2 sequence (Q99S17 whole entry): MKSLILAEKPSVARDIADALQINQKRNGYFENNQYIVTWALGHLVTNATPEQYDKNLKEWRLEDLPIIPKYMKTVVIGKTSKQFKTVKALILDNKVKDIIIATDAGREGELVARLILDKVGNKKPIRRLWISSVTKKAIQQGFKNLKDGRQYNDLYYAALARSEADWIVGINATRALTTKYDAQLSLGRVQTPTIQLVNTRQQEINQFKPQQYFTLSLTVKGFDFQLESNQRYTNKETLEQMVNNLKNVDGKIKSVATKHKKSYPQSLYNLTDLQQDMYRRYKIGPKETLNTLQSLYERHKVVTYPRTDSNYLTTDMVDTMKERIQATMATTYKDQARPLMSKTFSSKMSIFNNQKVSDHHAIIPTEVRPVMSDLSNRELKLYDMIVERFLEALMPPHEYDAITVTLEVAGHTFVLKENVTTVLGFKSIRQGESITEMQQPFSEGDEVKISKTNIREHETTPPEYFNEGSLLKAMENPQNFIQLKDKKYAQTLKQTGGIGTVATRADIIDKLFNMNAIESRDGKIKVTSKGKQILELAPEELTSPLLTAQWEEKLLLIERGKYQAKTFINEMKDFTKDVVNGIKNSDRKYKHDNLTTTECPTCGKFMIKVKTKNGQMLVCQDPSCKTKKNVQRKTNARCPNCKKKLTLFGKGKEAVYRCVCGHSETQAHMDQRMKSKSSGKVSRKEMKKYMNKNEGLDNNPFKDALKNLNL

For `Cc1cc(O)cc2oc(=O)c3c(O)cc(O)cc3c12` [compound 1, alternariol], the “plasmid pCT74 unwinding, agarose gel” value (Top1) was “AOH effectively blocked the unwinding activities of the above four topoisomerases”, the “plasmid pCT74 unwinding, agarose gel” value (Top4) was “AOH effectively blocked the unwinding activities of the above four topoisomerases” and the “plasmid pCT74 unwinding, agarose gel” value (Topc) was “AOH effectively blocked the unwinding activities of the above four topoisomerases”. The “plasmid pCT74 unwinding, agarose gel” value (Top3) was “AOH effectively blocked the unwinding activities of the above four topoisomerases”.
